PubChem BioAssay (NCI)
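In this assay, cells in 96-well plates receive the compound at five concentrations for 48 hours. Endpoints are linearly interpolated between the surrounding concentrations. Definition used: TGI = concentration required for complete inhibition of growth.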 Where a SMILES comes first, the peptide text is derived from it. The star is where a group is joined. Pentanoyl = CCCCC(=O)*; Boc = CC(C)(C)OC(=O)*

How the values were obtained:
Assay in all cases: NCI-60 cell line screen, 48 h
ACHN renal = tested on: ACHN renal
CAKI-1 renal = tested on: CAKI-1 renal
EKVX NSCLC = tested on: EKVX NSCLC
HS 578T breast = tested on: HS 578T breast
HT29 colon = tested on: HT29 colon
M14 melanoma = tested on: M14 melanoma
MCF7 breast = tested on: MCF7 breast
MDA-MB-231 breast = tested on: MDA-MB-231 breast
MDA-MB-435 = tested on: MDA-MB-435
NCI/ADR-RES ovarian = tested on: NCI/ADR-RES ovarian
OVCAR-4 ovarian = tested on: OVCAR-4 ovarian
OVCAR-5 ovarian = tested on: OVCAR-5 ovarian
OVCAR-8 ovarian = tested on: OVCAR-8 ovarian
RPMI-8226 leukemia = tested on: RPMI-8226 leukemia
SK-MEL-5 melanoma = tested on: SK-MEL-5 melanoma
SK-OV-3 ovarian = tested on: SK-OV-3 ovarian
SNB-19 CNS = tested on: SNB-19 CNS
U251 CNS = tested on: U251 CNS
UO-31 renal = tested on: UO-31 renal
A498 renal = tested on: A498 renal

Structure (SMILES)	TGI (ACHN renal)	TGI (CAKI-1 renal)	TGI (EKVX NSCLC)	TGI (HS 578T breast)	TGI (HT29 colon)	TGI (M14 melanoma)	TGI (MCF7 breast)	TGI (MDA-MB-231 breast)	TGI (MDA-MB-435)	TGI (NCI/ADR-RES ovarian)	TGI (OVCAR-4 ovarian)	TGI (OVCAR-5 ovarian)	TGI (OVCAR-8 ovarian)	TGI (RPMI-8226 leukemia)	TGI (SK-MEL-5 melanoma)	TGI (SK-OV-3 ovarian)	TGI (SNB-19 CNS)	TGI (U251 CNS)	TGI (UO-31 renal)	TGI (A498 renal)
COc1cc(/C=C/C(=O)OCCc2ccccc2)ccc1O	33.9 µM	29.7 µM	33.5 µM	50 µM	44.3 µM	29 µM	44.8 µM	30.6 µM	27.3 µM	60.6 µM	26.1 µM	32.8 µM	79.3 µM	65.9 µM	33.7 µM	29.7 µM	33.9 µM	29.5 µM	27.3 µM	–
O=C1C(C(c2ccccc2)N2CCOCC2)=C(O)C(c2ccccc2)N1c1ccccc1 (stereo not drawn)	> 10 µM	> 10 µM	> 10 µM	> 10 µM	> 10 µM	> 10 µM	> 10 µM	> 10 µM	> 10 µM	> 10 µM	–	> 10 µM	> 10 µM	> 10 µM	> 10 µM	> 10 µM	> 10 µM	> 10 µM	> 10 µM	> 10 µM
Oc1ccc2oc3c(O)c4ccccc4cc3c2c1	21 µM	68.7 µM	–	> 100 µM	48.6 µM	21.7 µM	18.8 µM	36 µM	5.33 µM	9.74 µM	13 µM	–	16.5 µM	3.96 µM	7.5 µM	53.2 µM	> 100 µM	21.1 µM	15.8 µM	9.33 µM
O=C1C(Cl)=C(N2C(=O)CCCC2=O)C(=O)c2ccccc21	21 µM	27.2 µM	33.2 µM	> 100 µM	29.2 µM	37.5 µM	52.1 µM	50.5 µM	44.9 µM	95.3 µM	–	38.1 µM	23.9 µM	40.9 µM	30.2 µM	> 100 µM	–	66.1 µM	23 µM	33.4 µM
O=C1c2ccccc2-c2c1c(-c1ccc([N+](=O)[O-])cc1)nc1ccc3ccccc3c21	> 100 µM	> 100 µM	> 100 µM	> 100 µM	> 100 µM	> 100 µM	> 100 µM	> 100 µM	> 100 µM	> 100 µM	> 100 µM	> 100 µM	> 100 µM	> 100 µM	–	> 100 µM	> 100 µM	> 100 µM	> 100 µM	> 100 µM
CCCCC(=O)Oc1ccc(CC(NC(=O)OC(C)(C)C)C(=O)NC(C)C(=O)NC(Cc2ccccc2)C(=O)NCC(N)=O)cc1 (stereo not drawn) (Boc-Y(Pentanoyl)AFG-NH2; configuration not given here)	> 100 µM	> 100 µM	–	> 100 µM	40 µM	> 100 µM	41.8 µM	41.6 µM	45.1 µM	> 100 µM	> 100 µM	52 µM	62.5 µM	44.8 µM	> 100 µM	> 100 µM	59 µM	40.6 µM	> 100 µM	> 100 µM
Cc1n[nH]c(=O)n1/N=C/c1cccs1	> 100 µM	> 100 µM	> 100 µM	> 100 µM	> 100 µM	> 100 µM	> 100 µM	> 100 µM	> 100 µM	> 100 µM	> 100 µM	> 100 µM	> 100 µM	> 100 µM	–	> 100 µM	> 100 µM	> 100 µM	> 100 µM	> 100 µM
O=C(NNc1ccnc2cc(Cl)ccc12)/C(=C\c1ccccc1Cl)NC(=O)c1ccccc1	> 100 µM	> 100 µM	> 100 µM	> 100 µM	> 100 µM	> 100 µM	46.1 µM	> 100 µM	> 100 µM	73.7 µM	> 100 µM	> 100 µM	43.5 µM	> 100 µM	81.2 µM	> 100 µM	> 100 µM	34 µM	> 100 µM	–
C=CCn1c(C23CC4CC(CC(C4)C2)C3)n[nH]c1=S	> 100 µM	–	–	> 100 µM	> 100 µM	> 100 µM	> 100 µM	> 100 µM	> 100 µM	> 100 µM	> 100 µM	> 100 µM	> 100 µM	> 100 µM	–	> 100 µM	> 100 µM	> 100 µM	> 100 µM	> 100 µM
O=C1Nc2ccccc2S/C1=C\c1ccccc1C(F)(F)F	> 100 µM	> 100 µM	> 100 µM	> 100 µM	> 100 µM	> 100 µM	> 100 µM	> 100 µM	> 100 µM	> 100 µM	49.4 µM	> 100 µM	> 100 µM	> 100 µM	> 100 µM	> 100 µM	> 100 µM	> 100 µM	> 100 µM	–
Cc1nn(C(=O)c2ccc(Cl)cc2)c2c1C(c1cccc([N+](=O)[O-])c1)SC(N)=N2 (stereo not drawn)	> 10 µM	> 10 µM	> 10 µM	> 10 µM	> 10 µM	> 10 µM	> 10 µM	> 10 µM	> 10 µM	> 10 µM	> 10 µM	> 10 µM	> 10 µM	> 10 µM	> 10 µM	> 10 µM	> 10 µM	> 10 µM	–	–
N#Cc1c(NCCc2ccc(F)cc2)c2ccccc2n2c1nc1ccccc12	35.2 µM	29.1 µM	29.3 µM	32 µM	91.5 µM	> 100 µM	> 100 µM	36.3 µM	> 100 µM	59.2 µM	9.16 µM	> 100 µM	25.4 µM	> 100 µM	–	> 100 µM	51 µM	61 µM	39.5 µM	53.1 µM
CN(Cc1cnc2nc(N)nc(N)c2n1)c1ccc(C(=O)NCS(=O)(=O)O)cc1	> 100 µM	–	> 100 µM	> 100 µM	> 100 µM	> 100 µM	> 100 µM	> 100 µM	> 100 µM	> 100 µM	> 100 µM	> 100 µM	> 100 µM	> 100 µM	> 100 µM	> 100 µM	> 100 µM	> 100 µM	> 100 µM	> 100 µM
COC(=O)[C@H]1C[C@H]1NC(=O)C(CC(=O)OCc1ccccc1)NC(=O)OCc1ccccc1 (stereo partly drawn)	> 100 µM	–	> 100 µM	> 100 µM	> 100 µM	52.1 µM	> 100 µM	> 100 µM	69.8 µM	91.5 µM	–	> 100 µM	> 100 µM	50.2 µM	55.9 µM	> 100 µM	> 100 µM	> 100 µM	–	> 100 µM
O=C(O)c1cc2cc(c1)N=Cc1ccccc1OCc1cccc(n1)COc1ccccc1C=N2	> 25 µM	–	> 25 µM	13.1 µM	> 25 µM	> 25 µM	> 25 µM	> 25 µM	8.25 µM	15.4 µM	> 25 µM	> 25 µM	> 25 µM	22 µM	–	> 25 µM	> 25 µM	> 25 µM	> 25 µM	> 25 µM
C=C1CCCCCCCCCCC12SCCC2CCCCSC (stereo not drawn)	38.9 µM	–	86.4 µM	> 100 µM	61.4 µM	50.1 µM	39.3 µM	39 µM	75.7 µM	46.2 µM	> 100 µM	40 µM	56.4 µM	46 µM	33.1 µM	> 100 µM	52.2 µM	33.8 µM	60.4 µM	35.8 µM
O=C(O)c1ccccc1CC1Cc2ccc3c(c2C1=O)CCC3 (stereo not drawn)	> 100 µM	> 100 µM	> 100 µM	> 100 µM	> 100 µM	> 100 µM	> 100 µM	> 100 µM	> 100 µM	> 100 µM	> 100 µM	> 100 µM	> 100 µM	> 100 µM	> 100 µM	> 100 µM	> 100 µM	> 100 µM	> 100 µM	–
CC(=O)Nc1ccc(CNc2cc(=O)n(C)c(=O)[nH]2)cc1	> 100 µM	> 100 µM	> 100 µM	> 100 µM	> 100 µM	> 100 µM	> 100 µM	> 100 µM	> 100 µM	> 100 µM	> 100 µM	> 100 µM	> 100 µM	> 100 µM	> 100 µM	> 100 µM	> 100 µM	> 100 µM	> 100 µM	–
CCOC(=O)C(NCc1ccc2c(c1)OCO2)(NC(=O)c1ccccc1)C(F)(F)F (stereo not drawn)	> 100 µM	> 100 µM	> 100 µM	> 100 µM	> 100 µM	> 100 µM	> 100 µM	> 100 µM	> 100 µM	> 100 µM	> 100 µM	> 100 µM	> 100 µM	> 100 µM	> 100 µM	> 100 µM	> 100 µM	> 100 µM	> 100 µM	–
